# Laboratory results as given in the supplement of paper PMC10307832.
# Assays:
# Assay in all cases: relative viability (nuclei count vs DMSO), 5 days (fraction); higher = more cells survive
# [1] = compound: C#Cc1cccc(Nc2ncnc3cc(OCCOC)c(OCCOC)cc23)c1 [Erlotinib] + Cc1cc(Nc2cc(N3CCN(C)CC3)nc(Sc3ccc(NC(=O)C4CC4)cc3)n2)n[nH]1 [Tozasertib] (partner 0.1 µM)
# How it was run: (§1)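 Relative viability equals treated-well nuclei counts divided by vehicle-well nuclei counts. Counts came from 4× images of lung cancer cell lines grown in 1536-well plates for 5 days after pin-tool dosing on the day after seeding. Dosing used one drug alone or a fixed anchor-drug dose plus five library-drug doses (not always all listed) in √10 steps, and values are medians of duplicate plates.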
# [2] = compound: C#Cc1cccc(Nc2ncnc3cc(OCCOC)c(OCCOC)cc23)c1 [Erlotinib] + C[C@]1(O)C[C@@H](c2nc(-c3ccc4ccc(-c5ccccc5)nc4c3)c3c(N)nccn32)C1 [Linsitinib] (partner 1 µM)
# How it was run: as §1
# [3] = compound: C#Cc1cccc(Nc2ncnc3cc(OCCOC)c(OCCOC)cc23)c1 [Erlotinib] + CC(=O)Nc1cccc(-n2c(=O)n(C3CC3)c(=O)c3c(Nc4ccc(I)cc4F)n(C)c(=O)c(C)c32)c1 [Trametinib] (partner 0.02 µM)
# How it was run: as §1
# [4] = compound: C#Cc1cccc(Nc2ncnc3cc(OCCOC)c(OCCOC)cc23)c1 [Erlotinib] + CS(=O)(=O)N1CCN(Cc2cc3nc(-c4cccc5[nH]ncc45)nc(N4CCOCC4)c3s2)CC1 [Pictilisib] (partner 1 µM)
# How it was run: as §1
# [5] = compound: C#Cc1cccc(Nc2ncnc3cc(OCCOC)c(OCCOC)cc23)c1 [Erlotinib] + O=C(c1cc(Cc2n[nH]c(=O)c3ccccc23)ccc1F)N1CCN(C(=O)C2CC2)CC1 [Olaparib] (partner 8 µM)
# How it was run: as §1
Cell Line,relative viability ([1]; first compound 0.02 µM),relative viability ([1]; first compound 0.2 µM),relative viability ([1]; first compound 0.6325 µM),relative viability ([1]; first compound 2 µM),relative viability ([2]; first compound 0.02 µM),relative viability ([2]; first compound 0.2 µM),relative viability ([2]; first compound 0.6325 µM),relative viability ([3]; first compound 0.02 µM),relative viability ([3]; first compound 0.2 µM),relative viability ([3]; first compound 0.6325 µM),relative viability ([3]; first compound 2 µM),relative viability ([4]; first compound 0.02 µM),relative viability ([4]; first compound 0.2 µM),relative viability ([4]; first compound 0.6325 µM),relative viability ([4]; first compound 2 µM),relative viability ([5]; first compound 0.02 µM),relative viability ([5]; first compound 0.2 µM),relative viability ([5]; first compound 0.6325 µM),relative viability ([5]; first compound 2 µM),relative viability ([2]; first compound 2 µM)
LOU-NH91,0.564,0.472,0.491,0.424,0.592,0.544,0.487,0.759,0.57,0.739,0.644,0.471,0.505,0.465,0.475,0.733,0.619,0.725,0.624,
NCI-H522,0.493,0.573,0.508,0.465,,,,0.665,0.697,0.705,0.676,,,,,0.614,0.553,0.61,0.422,
NCI-H1299,,,,,1.07,0.968,1.04,,,,,0.894,0.839,0.918,0.55,0.988,1.01,0.959,1,0.956
NCI-H1563,,,,,1.2,1.23,1.2,,,,,0.63,0.706,0.679,0.636,,,,,1.15
NCI-H1623,0.437,0.315,0.29,0.209,,,,,,,,,,,,,,,,
NCI-H1648,0.489,0.434,0.555,0.252,,,,0.5,0.313,0.348,0.289,,,,,1.4,0.517,0.692,0.442,
NCI-H1650,0.465,0.332,0.305,0.217,,,,0.477,0.443,0.561,0.382,0.483,,0.578,0.47,0.821,0.685,0.61,0.644,
NCI-H1703,,,,,0.749,0.818,1.08,,,,,0.233,0.218,0.29,0.243,0.48,0.512,0.43,0.389,0.924
NCI-H1792,,,,,0.466,0.405,0.525,0.435,0.423,0.47,0.446,0.305,0.183,0.269,0.21,0.407,0.299,0.464,0.383,0.432
NCI-H2170,0.811,0.73,0.607,0.324,,,,0.884,0.924,0.977,0.773,0.316,0.282,0.236,0.176,0.651,0.602,0.476,0.309,
NCI-H2342,0.444,0.495,0.491,0.361,,,,1.14,0.814,0.803,0.74,,,,,0.378,0.425,0.462,0.383,
SW 900,0.514,0.487,0.33,0.257,,,,0.867,0.761,0.771,0.631,,,,,0.907,0.846,0.84,,
